Measurements taken from patent EP4617268A1, “QUINAZOLINE DERIVATIVES” (Kyoto University, priority 2022, dated 2024).

Tested on: IKBKAP-FD exon 20 inclusion (IKBKAP gene, IVS20+6T>C mutation)
Test: SPREADD reporter system for the IKBKAP splicing mutation (exon 20 skipping, IVS20+6T>C) in transfected HeLa cells, GFP/RFP ratio
Format: cell-based
Settings: Homo sapiens, 24 h; HeLa cells transfected with SPREADD reporter construct; fluorescence measured one day later; IKBKAP-FD exon 20 inclusion rate by GFP/RFP ratio; %GFP of 20 pM 2-chloro-6-(2-furylmethyl)purine set to 100%
Method: A SPREADD reporter system for a splicing mutation of the IKBKAP gene in familial dysautonomia was prepared, as illustrated in FIG. 1. In this reporter system, GFP is expressed when the gene undergoes normal splicing, while RFP is expressed when the gene undergoes abnormal splicing (exon skipping).
HeLa cells transfected with the prepared SPREADD reporter construct were brought into contact with the compounds listed in Table 2 below and cultured (concentrations: 22.86237 nM, 68.58711 nM, 205.7613 nM, 617.284 nM, 1851.852 nM, 5555.556 nM, 16666.67 nM, or 50000 nM). One day later, fluorescence was measured using All-in-One Fluorescence Microscope BZ-X700 (Keyence Corp.), and the IKBKAP-FD exon 20 inclusion rate was quantified by the GFP/RFP ratio of the IKBKAP-FD reporter. […] The EC50 was determined with %GFP of 20 pM 2-chloro-6-(2-furylmethyl)purine set to 100%. Regression analysis for determining EC50 was performed using GraphPad Prism 7.05.

EC50	Compound
2.1 µM	COc1cc2nc(Cl)nc(NCc3ccco3)c2cc1OC [Example 1, 2-Chloro-N-(furan-2-ylmethyl)-6,7-dimethoxyquinazolin-4-amine]
2.12 µM	COc1cc2nc(Cl)nc(NCc3cccs3)c2cc1OC [Example 2, 2-Chloro-6,7-dimethoxy-N-(thiophen-2-ylmethyl)quinazolin-4-amine]
2.82 µM	COc1cc2nc(Cl)nc(NCc3ccsc3)c2cc1OC [Example 3, 2-Chloro-6,7-dimethoxy-N-(thiophen-3-ylmethyl)quinazolin-4-amine]
35.9 µM	COc1cc2nc(Cl)nc(NCc3nccs3)c2cc1OC [Example 4, 2-Chloro-6,7-dimethoxy-N-(1,3-thiazol-2-ylmethyl)quinazolin-4-amine]
4.2 µM	COc1cc2nc(Cl)nc(NCc3ccncc3)c2cc1OC [Example 5, 2-Chloro-6,7-dimethoxy-N-(pyridin-4-ylmethyl)quinazolin-4-amine]
5.7 µM	COc1cc2nc(Cl)nc(NCc3ncco3)c2cc1OC [Example 6, 2-Chloro-6,7-dimethoxy-N-(1,3-oxazol-2-ylmethyl)quinazolin-4-amine]
21.9 µM	COc1cc2nc(Cl)nc(NCc3cc[nH]c3)c2cc1OC [Example 7, 2-Chloro-6,7-dimethoxy-N-(1H-pyrrol-3-ylmethyl) quinazolin-4-amine]
20 µM	COc1cc2nc(Cl)nc(NCc3ccoc3)c2cc1OC [Example 8, 2-Chloro-N-(furan-3-ylmethyl)-6,7-dimethoxyquinazolin-4-amine]
3.34 µM	COc1cc2nc(Cl)nc(NCc3ccccn3)c2cc1OC [Example 9, 2-Chloro-6,7-dimethoxy-N-(pyridin-2-ylmethyl)quinazolin-4-amine]
2.9 µM	COc1ccc2c(NCc3ccco3)nc(Cl)nc2c1 [Example 10, 2-Chloro-N-(furan-2-ylmethyl)-7-methoxyquinazolin-4-amine]
8 µM	COc1ccc2nc(Cl)nc(NCc3ccco3)c2c1 [Example 11, 2-Chloro-N-(furan-2-ylmethyl)-6-methoxyquinazolin-4-amine]
1.08 µM	COc1ccc2c(NCc3ccco3)cc(Cl)nc2c1 [Example 12, 2-Chloro-N-(furan-2-ylmethyl)-7-methoxyquinolin-4-amine]
4.39 µM	COc1ccc2nc(Cl)cc(NCc3ccco3)c2c1 [Example 13, 2-Chloro-N-(furan-2-ylmethyl)-6-methoxyquinolin-4-amine]
1.37 µM	CCOc1cc2c(NCc3ccco3)nc(Cl)nc2cc1OC [Example 14, 2-Chloro-6-ethoxy-N-(furan-2-ylmethyl)-7-methoxyquinazolin-4-amine]
0.6 µM	CCCOc1cc2c(NCc3ccco3)nc(Cl)nc2cc1OC [Example 15, 2-Chloro-N-(furan-2-ylmethyl)-7-methoxy-6-propoxyquinazolin-4-amine]
2.49 µM	COc1cc2nc(Cl)nc(NCc3ccco3)c2cc1OC(C)C [Example 16, 2-Chloro-N-(furan-2-ylmethyl)-7-methoxy-6-(propan-2-yloxy)quinazolin-4-amine]
3.06 µM	COCCOc1cc2c(NCc3ccco3)nc(Cl)nc2cc1OC [Example 17, 2-Chloro-N-(furan-2-ylmethyl)-7-methoxy-6-(2-methoxyethoxy)quinazolin-4-amine]

EC50	Compound
1.6 µM	COc1cc2nc(Cl)nc(NCc3ccco3)c2cc1OCC1CC1 [Example 18, 2-Chloro-6-(cyclopropylmethoxy)-N-(furan-2-ylmethyl)-7-methoxyquinazolin-4-amine]
0.17 µM	COc1cc2nc(Cl)nc(NCc3ccco3)c2cc1OCC1COC1 [Example 19, 2-Chloro-N-(furan-2-ylmethyl)-7-methoxy-6-(oxetan-3-ylmethoxy)quinazolin-4-amine]
8.34 µM	COc1cc2nc(Cl)nc(NCc3ccco3)c2cc1OCCN1CCOCC1 [Example 20, 2-Chloro-N-(furan-2-ylmethyl)-7-methoxy-6-[2-(morpholin-4-yl)ethoxy] quinazolin-4-amine]
8.5 µM	COc1cc2nc(Cl)nc(NCc3ccco3)c2cc1OCCCN1CCOCC1 [Example 21, 2-Chloro-N-(furan-2-ylmethyl)-7-methoxy-6-[3-(morpholin-4-yl)propoxy]quinazolin-4-amine]
14.5 µM	COc1cc2nc(Cl)nc(NCc3ccco3)c2cc1OCCC1CS(=O)(=O)C1 [Example 22, 2-Chloro-6-[2-(1,1-dioxidothiethan-3-yl)ethoxy]-N-(furan-2-ylmethyl)-7-methoxyquinazolin-4-amine]
0.53 µM	COc1cc2nc(Cl)nc(NCc3ccco3)c2cc1OCCN [Example 23, 6-(2-Aminoethoxy)-2-chloro-N-(furan-2-ylmethyl)-7-methoxyquinazolin-4-amine]
0.48 µM	CNCCOc1cc2c(NCc3ccco3)nc(Cl)nc2cc1OC [Example 24, 2-Chloro-N-(furan-2-ylmethyl)-7-methoxy-6-[2-(methylamino)ethoxy]quinazolin-4-amine]
0.79 µM	COc1cc2nc(Cl)nc(NCc3ccco3)c2cc1OCCN(C)C [Example 25, 2-Chloro-6-[2-(dimethylamino)ethoxy]-N-(furan-2-ylmethyl)-7-methoxyquinazolin-4-amine]
0.82 µM	COc1cc2nc(Cl)nc(NCc3ccco3)c2cc1OCCO [Example 26, 2-({2-Chloro-4-[(furan-2-ylmethyl)amino]-7-methoxyquinazolin-6-yl}oxy)ethanol]
2.02 µM	COc1cc2nc(Cl)nc(NCc3ccco3)c2cc1OCC1COCCO1 (stereo not drawn) [Example 27, 2-Chloro-6-(1,4-dioxan-2-ylmethoxy)-N-(furan-2-ylmethyl)-7-methoxyquinazolin-4-amine]
> 50 µM	COc1cc2nc(Cl)nc(NCc3ccco3)c2cc1OCCC(=O)O [Example 28, 3-({2-Chloro-4-[(furan-2-ylmethyl)amino]-7-methoxyquinazolin-6-yl}oxy)propanoic acid]
6.41 µM	COC(=O)CCOc1cc2c(NCc3ccco3)nc(Cl)nc2cc1OC [Example 29, Methyl 3-({2-chloro-4-[(furan-2-ylmethyl)amino]-7-methoxyquinazolin-6-yl}oxy)propanoate]
26.4 µM	COC(=O)COc1cc2c(NCc3ccco3)nc(Cl)nc2cc1OC [Example 30, Methyl ({2-chloro-4-[(furan-2-ylmethyl)amino]-7-methoxyquinazolin-6-yl}oxy)acetate]
3.15 µM	COc1cc2c(NCc3ccco3)nc(Cl)nc2cc1OCCN [Example 31, 7-(2-Aminoethoxy)-2-chloro-N-(furan-2-ylmethyl)-6-methoxyquinazolin-4-amine]
4.29 µM	CNCCOc1cc2nc(Cl)nc(NCc3ccco3)c2cc1OC [Example 32, 2-Chloro-N-(furan-2-ylmethyl)-6-methoxy-7-[2-(methylamino)ethoxy]quinazolin-4-amine]
3.65 µM	CCOc1cc2nc(Cl)nc(NCc3ccco3)c2cc1OC [Example 33, 2-Chloro-7-ethoxy-N-(furan-2-ylmethyl)-6-methoxyquinazolin-4-amine]
